From US8608967B2, “Multiple stationary phase matrix and uses thereof” (The Board of Trustees of the University of Arkansas, priority 2011, dated 2013)

Test: Dual-phase UHPLC-MS/MS profiling of warfarin and hydroxywarfarins in plasma of patients receiving warfarin
Conditions: four plasma samples of patients receiving warfarin
Description: Human plasma samples were processed as described previously (Wikoff et al., Proc Natl Acad Sci, 2009, 106:3698). […] Following equilibration, ice cold 0.2% formic acid in H2O (190 μL) was added to each sample, followed by ice cold 0.2% formic acid in acetonitrile (1000 μL). Samples were allowed to precipitate at 4° C. for 30 minutes, followed by centrifugation (10 min at 16,000 g) in a microcentrifuge. The supernatant (1000 μL) was then transferred to a new vial and dried down in a speed vacuum concentrator. Plasma extracts were resolubilized (40 μL) in mobile phase (55% methanol, 45% H2O with 0.01% formic acid) maintaining a 1:1 ratio with the original volume of plasma.
Standard curves containing all hydroxywarfarins and deuterated internal standards were prepared in potassium phosphate (50 mM, pH 7.4) and analyzed in triplicate with the assay conditions described above. […] The limit of quantification (LOQ) was defined as 5 times the LOD. Metabolite concentrations calculated to be below the limit of quantification were reported as LOQ.
All samples were from males and are referred to as M61, […], […], and M80, respectively. Plasma samples were extracted as described above, and analyzed independently on three separate days.

Compound	presence of metabolite in human plasma (in words)
CC(=O)CC(c1ccccc1)c1c(O)c2cccc(O)c2oc1=O (stereo not drawn) [8-hydroxywarfarin]	below the limit of detection
CC(=O)C(O)[C@H](c1ccccc1)c1c(O)c2ccccc2oc1=O (single isomer, unassigned) [R10a]	major observed metabolites
CC(=O)C[C@H](c1ccccc1)c1c(O)c2ccc(O)cc2oc1=O [R7, R-7-hydroxywarfarin]	observed in all four plasma samples
CC(=O)C[C@@H](c1ccccc1)c1c(O)c2ccc(O)cc2oc1=O [S7, S-7-hydroxywarfarin]	major observed metabolites
CC(=O)C(O)[C@@H](c1ccccc1)c1c(O)c2ccccc2oc1=O (stereo partly drawn) [S10a]	detected but below the limit of quantitation
CC(=O)C(O)[C@H](c1ccccc1)c1c(O)c2ccccc2oc1=O (single isomer, unassigned) [R10b]	major observed metabolites
CC(=O)CC(c1ccc(O)cc1)c1c(O)c2ccccc2oc1=O (stereo not drawn) [4″-hydroxywarfarin]	observed in some samples, but was below the limit of quantitation

Same assay, conditions: patients M61 and M75; 10-hydroxywarfarin derived from both R and S-warfarin

Compound	total plasma concentration compared with S-7-hydroxywarfarin
CC(=O)C(O)C(c1ccccc1)c1c(O)c2ccccc2oc1=O (stereo not drawn) [10-hydroxywarfarin]	higher than S-7-hydroxywarfarin concentrations

Same assay, conditions: patients M76 and M80

Compound	most abundant metabolite in plasma
CC(=O)C[C@@H](c1ccccc1)c1c(O)c2ccc(O)cc2oc1=O [S7, S-7-hydroxywarfarin]	the most abundant metabolite
